Data taken from ChEMBL document CHEMBL5543173, “Discovery of a New Anti-Inflammatory Agent from Anemoside B4 Derivatives and Its Therapeutic Effect on Colitis by Targeting Pyruvate Carboxylase” (J Med Chem, 2024).
pIC50: −log10 of the molar value. Activity calls are given as the source filed them. The rule behind the calls is not given here.

Legend:
[1] = test system: Mus musculus; experiment: Anti-colitis activity in ICR mouse model assessed as decrease in DSS-induced inflammatory cell infiltration in colon tissue at 60 mg/kg, IG treated for 8 days consecutively in presence of DADA by H and E staining based analysis; format: functional, organism-based; conditions: time 8.0 day
[2] = Tmax in colon of ICR mouse at 15 mg/kg, IG measured for 12 hrs by LC-MS/MS analysis; format: ADME, organism-based; conditions: po
[3] = test system: Mus musculus; experiment: Anti-colitis activity in ICR mouse model assessed as decrease in DSS-induced IL-6 level at 60 mg/kg, IG treated for 8 days consecutively in presence of DADA; format: functional, organism-based; conditions: time 8.0 day
[4] = Toxicity in ICR mouse assessed as change in heart index at 300 mg/kg, IG measured for 9 days; format: organism-based; conditions: in vivo, po, 216 h, time 9 day
[5] = test system: Mus musculus; experiment: Anti-colitis activity in ICR mouse model assessed as decrease in DSS-induced body weight loss at 15 to 60 mg/kg, IG treated for 9 days consecutively; format: functional, organism-based; conditions: dose 15-60 mg/kg, time 9.0 day
[6] = Cmax in ICR mouse at 15 mg/kg, IG measured for 12 hrs by LC-MS/MS analysis; format: ADME, organism-based; conditions: in vivo, po
[7] = test system: THP-1; experiment: Anti-inflammatory activity in human THP-1 cells assessed as decrease in LPS-induced IL-1beta level at 10 uM pretreated for 1 hr followed by LPS treatment for 24 hrs in presence of DADA by ELISA; format: functional, cell-based; conditions: time 25.0 hrs
[8] = Toxicity in ICR mouse assessed as change in lungs index at 300 mg/kg, IG measured for 9 days; format: organism-based; conditions: in vivo, po, 216 h, time 9 day
[9] = Volume of distribution in ICR mouse at 15 mg/kg, IG measured for 12 hrs by LC-MS/MS analysis; format: ADME, organism-based; conditions: in vivo, po
[10] = test system: THP-1; experiment: Anti-inflammatory activity in human THP-1 cells assessed as decrease in LPS-induced TNF-alpha level pretreated for 1 hr followed by LPS treatment for 24 hrs by ELISA; format: functional, cell-based; conditions: dose 0.1-10 µM, time 25.0 hrs
[11] = test system: Mus musculus; experiment: Anti-colitis activity in ICR mouse model of DSS-induced colitis assessed as decrease in DAI score at 15 to 60 mg/kg, IG treated for 9 days consecutively; format: functional, organism-based; conditions: dose 15-60 mg/kg, time 9.0 day
[12] = test system: Mus musculus; experiment: Anti-colitis activity in ICR mouse model assessed as decrease in DSS-induced apoptosis in colon tissue at 15 to 60 mg/kg, IG treated for 8 days consecutively by H and E staining based analysis; format: functional, organism-based; conditions: dose 15-60 mg/kg, time 8.0 day
[13] = test system: Mus musculus; experiment: Anti-colitis activity in ICR mouse model assessed as decrease in DSS-induced apoptosis in colon tissue at 60 mg/kg, IG treated for 8 days consecutively in presence of DADA by H and E staining based analysis; format: functional, organism-based; conditions: time 8.0 day
[14] = AUC (0 to t) in Sprague-Dawley rat administered as hydroxypropyl-beta-cyclodextrin at 20 mg/kg, IG measured for 12 hrs by LC-MS/MS analysis; format: ADME, organism-based; conditions: in vivo, po
[15] = test system: THP-1; experiment: cells; conditions: Homo sapiens, THP-1, 24 h
Description: Cytotoxicity against human THP-1 cells assessed as inhibition of cell viability incubated for 24 hrs by CCK8 assay

[16] = Half life in colon of ICR mouse at 15 mg/kg, IG measured for 12 hrs by LC-MS/MS analysis; format: ADME, organism-based; conditions: po
[17] = test system: Mus musculus; experiment: Anti-colitis activity in ICR mouse model assessed as increase in DSS-reduced pyruvate level at 60 mg/kg, IG treated for 8 days consecutively in presence of DADA; format: functional, organism-based; conditions: time 8.0 day
[18] = Toxicity in ICR mouse assessed as change in spleen index at 300 mg/kg, IG measured for 9 days; format: organism-based; conditions: in vivo, po, 216 h, time 9 day
[19] = test system: Mus musculus; experiment: Anti-colitis activity in ICR mouse model assessed as decrease in DSS-induced DAI score at 60 mg/kg, IG treated for 8 days consecutively in presence of DADA; format: functional, organism-based; conditions: time 8.0 day
[20] = test system: Mus musculus; experiment: Anti-colitis activity in ICR mouse model assessed as reversal of DSS-induced splenomegaly at 15 to 60 mg/kg, IG treated for 9 days consecutively; format: functional, organism-based; conditions: dose 15-60 mg/kg, time 9.0 day
[21] = test system: Mus musculus; experiment: Anti-colitis activity in ICR mouse model of DSS-induced colitis assessed as effect on pyruvate carboxylase expression in colon tissue at 60 mg/kg, IG treated for 8 days consecutively by Western blot analysis; format: functional, organism-based; conditions: time 8.0 day
[22] = MRT (0 to t) in […] administered as hydroxypropyl-beta-cyclodextrin at 20 mg/kg, IG measured for 12 hrs by LC-MS/MS analysis; format: ADME, organism-based; conditions: in vivo, po
[23] = Toxicity in ICR mouse assessed as change in liver index at 300 mg/kg, IG measured for 9 days; format: organism-based; conditions: in vivo, po, 216 h, time 9 day
[24] = Cmax in colon of ICR mouse at 15 mg/kg, IG measured for 12 hrs by LC-MS/MS analysis; format: ADME, organism-based; conditions: po
[25] = test system: THP-1; experiment: Anti-inflammatory activity in human THP-1 cells assessed as decrease in LPS-induced pro-IL-1beta level at 1 to 10 uM pretreated for 1 hr followed by LPS/ATP treatment for 6 hrs by Western blot analysis; format: functional, cell-based; conditions: dose 1-10 µM, time 7.0 hrs
[26] = test system: THP-1; experiment: Anti-inflammatory activity in human THP-1 cells assessed as decrease in LPS-induced P20 level at 1 to 10 uM pretreated for 1 hr followed by LPS/ATP treatment for 6 hrs by Western blot analysis; format: functional, cell-based; conditions: dose 1-10 µM, time 7.0 hrs
[27] = test system: Mus musculus; experiment: Anti-colitis activity in ICR mouse model assessed as decrease in DSS-induced pyruvate carboxylase level at 60 mg/kg, IG treated for 8 days consecutively; format: functional, organism-based; conditions: time 8.0 day
[28] = Half life in ICR mouse at 15 mg/kg, IG measured for 12 hrs by LC-MS/MS analysis; format: ADME, organism-based; conditions: ICR, in vivo, po
[29] = test system: Mus musculus; experiment: Anti-colitis activity in ICR mouse model assessed as […] DSS-induced colon length at 60 mg/kg, IG treated for 8 days consecutively in presence of DADA; format: functional, organism-based; conditions: time 8.0 day
[30] = test system: Mus musculus; experiment: Anti-colitis activity in ICR mouse model assessed as decrease in DSS-induced epithelial cell injury in colon tissue at 60 mg/kg, IG treated for 8 days consecutively in presence of DADA by H and E staining based analysis; format: functional, organism-based; conditions: time 8.0 day
[31] = test system: THP-1; experiment: Anti-inflammatory activity in human THP-1 cells assessed as decrease in LPS-induced TNF-alpha level at 10 uM pretreated for 1 hr followed by LPS treatment for 24 hrs in presence of DADA by ELISA; format: functional, cell-based; conditions: time 25.0 hrs

Tmax [2]: 1.58 h | Cmax [6]: 40.4 ng/mL | Vd [9]: 2867.15 L/kg | AUCt [14]: 223.22 ng·h/mL | pIC50 [15]: ≤ 4.10 | half-life [16]: 1.54 h | MRT last at 12 h [22]: 4.05 h | Cmax [24]: 1110 ng/mL | half-life [28]: 2.46 h
SMILES: C=C(C)[C@@H]1CC[C@]2(C(=O)NCCCCCC(=O)OC)CC[C@]3(C)[C@H](CC[C@@H]4[C@@]5(C)CC[C@H](O[C@@H]6OC[C@H](O)[C@H](O)[C@H]6O[C@@H]6O[C@@H](C)[C@H](O)[C@@H](O)[C@H]6O)[C@@](C)(CO)[C@@H]5CC[C@]43C)[C@@H]12
Activity [1]: inactive | Activity [3]: inactive | Activity [4]: Non-Toxic | Activity [5]: Active | Activity [7]: inactive | Activity [8]: Non-Toxic | Activity [10]: Dose-Dependent Effect | Activity [11]: Active | Activity [12]: Active | Activity [13]: inactive | Activity [17]: inactive | Activity [18]: Non-Toxic | Activity [19]: inactive | Activity [20]: Active | Activity [21]: inactive | Activity [23]: Non-Toxic | Activity [25]: Active | Activity [26]: Active | Activity [27]: Active | Activity [29]: inactive | Activity [30]: inactive | Activity [31]: inactive
